In paper PMC12876586, “Chronological lifespan extension and nucleotide salvage inhibition in yeast by isonicotinamide supplementation” (The Journal of Biological Chemistry, 2026):

Tests used:
Assay type in all cases: biochemical
Phm8 = biological target: T1, Phm8 (Saccharomyces cerevisiae, UniProt P40025); assay: malachite green phosphate release; conditions: 100 μM CMP, 5 mM MgCl2, pH 7.5, 37 °C, 30 min; mM INAM
T1 construct: pET-16b (NdeI), E. coli BL21(DE3), C-terminal 10xHis as printed, Ni-NTA purified
T1 sequence (P40025 1-321): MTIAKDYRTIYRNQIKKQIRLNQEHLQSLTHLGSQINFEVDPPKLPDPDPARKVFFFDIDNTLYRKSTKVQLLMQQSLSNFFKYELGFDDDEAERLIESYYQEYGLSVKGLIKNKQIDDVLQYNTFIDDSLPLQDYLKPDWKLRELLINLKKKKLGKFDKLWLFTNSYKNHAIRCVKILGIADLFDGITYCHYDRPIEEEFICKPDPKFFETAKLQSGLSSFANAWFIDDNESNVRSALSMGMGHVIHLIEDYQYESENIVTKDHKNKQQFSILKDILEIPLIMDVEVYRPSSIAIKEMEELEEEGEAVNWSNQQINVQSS

Sdt1 [1] = biological target: T2, Sdt1 (Saccharomyces cerevisiae, UniProt P53078); assay: malachite green phosphate release; conditions: 100 μM CMP (also inhibited with NMN), 5 mM MgCl2, pH 7.5, 37 °C, 30 min; mM INAM
T2 construct: recombinant, C-terminal His tag, commercial (Echelon Biosciences)

Pho8 [2] = biological target: T3, Pho8 (Saccharomyces cerevisiae, UniProt P11491); assay: pNPP hydrolysis, A400, whole cell extract of pho13Δ; conditions: pNPP substrate, Mg2+, Zn2+, pH 8.8, 37 °C, 15 min; weak inhibitor
T3 construct: native enzyme in whole cell extract of pho13Δ strain (Pho8 the remaining alkaline phosphatase)
T3 sequence (P11491 1-534): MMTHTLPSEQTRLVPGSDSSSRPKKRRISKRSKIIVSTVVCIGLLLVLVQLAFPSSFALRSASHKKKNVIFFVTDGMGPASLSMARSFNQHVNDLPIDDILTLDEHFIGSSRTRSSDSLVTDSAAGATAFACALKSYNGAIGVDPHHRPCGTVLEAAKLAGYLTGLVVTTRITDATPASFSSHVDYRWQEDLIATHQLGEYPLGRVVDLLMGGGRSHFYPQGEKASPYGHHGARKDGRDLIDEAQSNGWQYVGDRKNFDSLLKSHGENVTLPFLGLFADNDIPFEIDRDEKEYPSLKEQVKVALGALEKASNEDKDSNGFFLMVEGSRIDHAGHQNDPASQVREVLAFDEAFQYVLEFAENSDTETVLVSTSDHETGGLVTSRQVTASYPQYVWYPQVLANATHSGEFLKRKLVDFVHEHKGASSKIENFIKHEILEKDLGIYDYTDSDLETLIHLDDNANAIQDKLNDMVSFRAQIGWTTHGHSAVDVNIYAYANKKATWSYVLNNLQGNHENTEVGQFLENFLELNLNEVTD

Pho13 [3] = biological target: T4, Pho13 (Saccharomyces cerevisiae, UniProt P19881); assay: pNPP hydrolysis, A400, whole cell extract of pho8Δ; conditions: pNPP substrate, Mg2+, Zn2+, pH 8.8, 37 °C, 15 min; weak inhibitor
T4 construct: native enzyme in whole cell extract of pho8Δ strain (Pho13 the remaining alkaline phosphatase)
T4 sequence (P19881 1-312): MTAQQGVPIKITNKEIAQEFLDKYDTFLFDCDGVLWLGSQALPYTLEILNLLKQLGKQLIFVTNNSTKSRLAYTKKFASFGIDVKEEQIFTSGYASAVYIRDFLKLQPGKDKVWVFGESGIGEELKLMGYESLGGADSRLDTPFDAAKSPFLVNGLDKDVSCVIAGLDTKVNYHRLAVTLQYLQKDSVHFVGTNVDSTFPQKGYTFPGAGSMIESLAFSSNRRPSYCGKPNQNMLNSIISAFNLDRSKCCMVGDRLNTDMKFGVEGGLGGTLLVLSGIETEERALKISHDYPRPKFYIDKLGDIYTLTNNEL

Sdt1 [4] = biological target: T2, Sdt1; assay: malachite green phosphate release; conditions: 100 μM substrate, 5 mM MgCl2, pH 7.5, 37 °C, 30 min
Sdt1 [5] = biological target: T2, Sdt1; assay: malachite green phosphate release; conditions: activator; 100 μM NMN, 5 mM MgCl2, pH 7.5, 37 °C, 30 min; mM NAM
Pho13 [6] = biological target: T4, Pho13; assay: pNPP hydrolysis, A400, whole cell extract of pho8Δ; conditions: Mg2+, Zn2+, pH 8.8, 37 °C, 15 min
Pho8 [7] = biological target: T3, Pho8; assay: pNPP hydrolysis, A400, whole cell extract of pho13Δ; conditions: Mg2+, Zn2+, pH 8.8, 37 °C, 15 min

T2 sequence (P53078 whole entry): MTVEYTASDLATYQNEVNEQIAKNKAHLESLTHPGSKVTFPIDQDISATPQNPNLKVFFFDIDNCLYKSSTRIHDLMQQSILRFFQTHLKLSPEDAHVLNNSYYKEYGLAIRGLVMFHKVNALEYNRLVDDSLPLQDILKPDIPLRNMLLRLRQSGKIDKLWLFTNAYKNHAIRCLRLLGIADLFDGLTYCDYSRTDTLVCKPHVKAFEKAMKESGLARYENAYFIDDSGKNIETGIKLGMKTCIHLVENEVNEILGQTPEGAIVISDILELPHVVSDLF

**Q.** What does the source list for `NC(=O)c1ccncc1` [isonicotinamide]?
**A.** inhibition of nucleotidase activity (Phm8): INAM inhibition of recombinant Sdt1 and Phm8 nucleotidase activity on CMP in vitro; inhibition of nucleotidase activity (Sdt1 [1]): Sdt1 and Phm8 activity on CMP and NMN was significantly inhibited by INAM; inhibition of alkaline phosphatase activity (Pho8 [2]): suggesting that Pho8 and Pho13 are both weak inhibitory targets; inhibition of alkaline phosphatase activity (Pho13 [3]): suggesting that Pho8 and Pho13 are both weak inhibitory targets

**Q.** `NC(=O)c1ccc[n+]([C@@H]2O[C@H](COP(=O)(O)O)[C@@H](O)[C@H]2O)c1` [nicotinamide mononucleotide] was tested. Which “malachite green phosphate release” value (Sdt1 [4]) did it give?
**A.** The value was “INAM inhibition of recombinant Sdt1 nucleotidase activity on NMN in vitro”.

**Q.** How did the “stimulation of nucleotidase activity” value (Sdt1 [5]) turn out when `NC(=O)c1cccnc1` [nicotinamide] was run?
**A.** The value was “NAM caused significant dose-dependent stimulation of Sdt1 nucleotidase activity with NMN as substrate”.

**Q.** Which “pNPP hydrolysis, A400, whole cell extract of pho8Δ” value (Pho13 [6]) does the source give for `O=[N+]([O-])c1ccc(OP(=O)(O)O)cc1` [p-nitrophenyl phosphate] here?
**A.** The value was “both utilize pNPP as a substrate in vitro”.

**Q.** And the “pNPP hydrolysis, A400, whole cell extract of pho13Δ” value (Pho8 [7])?
**A.** The value was “both utilize pNPP as a substrate in vitro”.
